A short description of assay [1]: Salt spray test DIN 50 021 SS, 168 hours, of acrylic dispersion coating (Maincote HG-54) with corrosion inhibitor; corrosion protection factor CPF. The conditions noted are these: salt spray 168 hours, coat thickness 50 to 55 μm; for CPF film / CPF metal: 1% inhibitor on overall solids content, maximum 6 points, greater = better; for CPF: 1% inhibitor, sum of film and metal, maximum 12 points. On the procedure:
(§1) In order to prepare the coating formulation (acrylic dispersion based on Maincote HG-54), components 1 to 8 (formulation without amine salt) and components 1 to 9 (formulation comprising an amine salt) are employed in the sequence stated (see Table 1).
(§2) Components 1 to 8 or 1 to 9 are dispersed using a high-speed stirrer at 3000 revolutions/minute to a degree of ground fineness or ground particulate nature of <15 μm. The outcome of dispersing the pigment paste thus obtained is assessed by determining the grindometer value (ISO 1524).The amount of the novel salts employed is based on the overall solids content of the formulation without salt (overall solids content 47%). Accordingly, an addition of, say, 1.0% of amine salt to 100 g of dispersion denotes, for example, an amount of 0.47 g. To complete the coating formulation, components 10 to 16 of Table 1 are added at a reduced stirring speed (1000 revolutions/minute) in the stated sequence. Subsequently, the pH of the formulation is checked and, if appropriate, is adjusted prior to application to a value of from 8 to 8.5 using ammonia solution (25% strength).
(§3) The coating formulations are applied to steel panels (19×10.5 cm) of the Bonder type (cold-rolled degreased steel; manufactured by Chemetall, Frankfurt am Main/Germany) in a coat thickness which after drying amounts to 50-55 μm. Drying conditions: 10 days at room temperature.
(§4) Prior to the beginning of weathering, the “coating films” undergo defined damage in the form of a parallel cut (i.e. parallel to the longest panel edge) using a Bonder cross-cut instrument (Mod. 205; manufactured and sold by Lau, 5870 Hemer/Germany). The panel edges are protected by applying an edge protector (Icosit® 255; manufactured by Inertol AG, Winterthur/Switzerland).
(§5) The samples are subsequently subjected to accelerated weathering in a salt spray test in accordance with DIN 50 021 SS for 168 hours (Table 2) or to a humidity test in accordance with ASTM D 4585-87 for 330 hours (Table 3). The assessment of the results is based on the relevant DIN standards in accordance with an evaluation key, by the indication of a corrosion protection value CPF (Corrosion Protection Factor). The CPF is an additive term composed of an assessment of the coating (film) and an assessment of visible underfilm corrosion and appearance of the metal surface, and has a maximum of 12 points. The individual maximum values are 6 points each. The greater the CPF, the better the protection against corrosion.

A short description of assay [2]: Subfilm migration in the wet state (cathodic delamination) along the artificial damage, DIN 53 167, after the salt spray test. The conditions noted are these: 1% inhibitor; after salt spray 168 hours; coat thickness 50 to 55 μm; lesser = more effective.
From the text: as §3, §4
(§6) As additional assessment criteria, the “subfilm migration in the wet state” (cathodic delamination) along the artificial damage side is determined, after the end of the salt spray test, in accordance with DIN 53 167. […] After the end of the humidity test, the wet adhesion of the coating formulation is determined in accordance with DIN 53 151 by making a crosshatch cut followed by the tape tearoff test. According to DIN 53 151 (scale from Gt 0 to Gt 5) a crosshatch value of Gt 0 corresponds to completely intact adhesion of the coating film, whereas Gt 5 corresponds to inadequate adhesion.

The nature of assay [3]: Humidity test ASTM D 4585-87, 330 hours, of acrylic dispersion coating (Maincote HG-54) with corrosion inhibitor; corrosion protection factor CPF. The conditions noted are these: humidity test 330 hours, coat thickness 45 to 50 μm; for CPF film / CPF metal: maximum 6 points, greater = better; for CPF: sum of film and metal, maximum 12 points. The protocol:
as §1, §2
[…] Drying conditions: 10 days at room temperature.
as §4, §5

A short description of assay [4]: Wet adhesion of the coating formulation, DIN 53 151 crosshatch cut and tape tearoff test, after the humidity test. The conditions noted are these: after humidity test 330 hours, scale Gt 0 (completely intact adhesion) to Gt 5 (inadequate adhesion). On the procedure:
as §3, §6

The mark [5] stands for this setting: 1% inhibitor on overall solids content.
Where [6] appears, read: 2% inhibitor on overall solids content.

For the compound `CCCCCCCCCCCCCCCCN(CP(=O)(O)O)CP(=O)(O)O.CCN1CCOCC1.CCN1CCOCC1` [Example 5, n-Hexadecylaminobismethylenephosphonic Acid, Salt with Two Equivalents of N-ethylmorpholine], the CPF film in assay [1] was determined as 5.2; in assay [3] (setting [5]), 4.2. Besides, the CPF metal in assay [1] and in assay [3] (setting [5]) was 5.0 each time. Besides, the CPF in assay [1] came to 10.2; in assay [3] (1% inhibitor), 9.2. In addition, the “Cathodic delamination (mm total)” value in assay [2] was found to be 26 mm. Also, in assay [4] (1% inhibitor), the “Wet adhesion (Gt value)” value turned out to be 0 Gt.
For the compound `CCCCCCCCCCCCN(CP(=O)(O)O)CP(=O)(O)O.CCN1CCOCC1.CCN1CCOCC1` [Example 7, n-Dodecylaminobismethylenephosphonic Acid, Salt with Two Equivalents of N-ethylmorpholine], the CPF film is recorded as 5.4 in assay [1], 5.2 in assay [3] (setting [5]) and 6.0 in assay [3] (setting [6]). Further, the CPF metal in assay [1] turned out to be 5.6; in assay [3] (setting [5]), 3.0; in assay [3] (setting [6]), 4.5. Also, the results for the CPF in assay [1], in assay [3] (1% inhibitor) and in assay [3] (2% inhibitor) were 11.0, 8.2 and 10.5, respectively. For the same compound, the “Cathodic delamination (mm total)” value in assay [2] turned out to be 16 mm. For the same compound, the “Wet adhesion (Gt value)” value in assay [4] (1% inhibitor) and in assay [4] (2% inhibitor) was 0 Gt each time.

The values are drawn from patent US6403826B1, “Corrosion-inhibiting coating composition for metals” (Ciba Specialty Chemicals Corporation, priority 1996, dated 2002).
